Data taken from patent US10294202B2, “Pyrrolidinones as herbicides” (FMC Corporation, priority 2013, dated 2019).
Values joined by “and” are separate entries in the source; they are usually repeats but may differ in a detail not shown here. Identical values can stand only once.

Legend:
waterhemp (AMATA) = assay: Test H preemergence mixture test (Colby); type: in vivo, Amaranthus rudis; settings: applied alone, 21 d, mean of three replicates, scale 0-100
Text: (§1) Colby's Equation was used to determine the herbicidal effects expected from the mixtures. Colby's Equation (Colby, S. R. “Calculating Synergistic and Antagonistic Responses of Herbicide Combinations,” Weeds, 15(1), pp 20-22 (1967)) calculates the expected additive effect of herbicidal mixtures and for two active ingredients is of the form: Pa+b=Pa+Pb−(PaPb/100)
(§2) where • Pa+b is the percentage effect of the mixture expected from additive contribution of the individual components: • Pa is the observed percentage effect of the first active ingredient at the same use rate as in the mixture, and • Pb is the observed percentage effect of the second active ingredient at the same use rate as in the mixture. In the following Tables, rates are shown in grams of active ingredient per hectare (g a.i./ha); “Obsd.” is the observed effect. “Exp.” is the expected effect calculated from Colby's Equation.
(§3) This test evaluated the effect of mixtures of compound 80 with several commercial herbicides on four plant species. Seeds of plant species selected from corn (ZEAMD, Zea mays), soybean (GLXMA, Glycine max), waterhemp (common waterhemp, AMATA, Amaranthus rudis), and giant foxtail (SETFA, Setaria faberii) were planted into a silt loam soil and treated preemergence with test chemicals formulated in a non-phytotoxic solvent mixture which included a surfactant and applied using a volume of 281 L/ha. Each treatment was replicated three times. Treated plants and controls were maintained in a greenhouse using supplemental lighting to maintain a photoperiod of about 16 h; daytime and nighttime temperatures were about 24-30° C. and 19-21° C., respectively. Nutrients were applied using a balanced fertilizer applied through the watering system. At 21 d after treatment, all species were compared to controls and visually evaluated. Plant response ratings were calculated as the means of the three replicates, are summarized in Tables H1 through H5, and are based on a scale of 0 to 100 where 0 is no effect and 100 is complete control. A dash (-) response means no test result. The Expected (Exp.) results were calculated using Colby's Equation as described for Test G above.

giant foxtail (SETFA) = assay: Test H preemergence mixture test (Colby); type: in vivo, Setaria faberii; settings: applied alone, 21 d, mean of three replicates, scale 0-100
Text: as §1, §2, §3

corn (ZEAMD) = assay: Test H preemergence mixture test (Colby); type: in vivo, Zea mays; settings: applied alone, 21 d, mean of three replicates, scale 0-100
Text: as §1, §2, §3

soybean (GLXMA) = assay: Test H preemergence mixture test (Colby); type: in vivo, Glycine max; settings: applied alone, 21 d, mean of three replicates, scale 0-100
Text: as §1, §2, §3

[1] = test system: small-flower umbrella sedge (CYPDI); assay: Test G paddy mixture test (Colby); type: in vivo, Cyperus difformis; settings: applied alone, 20 g a.i./ha; 14 d; scale 0-100
Description: (§4) Seeds of small-flower umbrella […], Cyperus difformis) and […], Heteranthera limosa) were sown on the soil surface in two separate quadrants of 11-cm (4-inch) tubs filled with steam pasteurized Tama soil. Simultaneously, plantings of […], Echinochloa crus-galli) and transplanted japonica rice (ORYSA, Oryza sativa) were established in separate “plug” flats. […] Herbicide application timing was targeted at the 2.0 to 2.5 leaf stage and the plants were treated with test chemicals formulated in a non-phytotoxic solvent. Treated plants and controls were maintained in a greenhouse for 14 d, after which time all species were compared to controls and visually evaluated. Plant response ratings are summarized in Tables G1 through G12, and are based on a scale of 0 to 100 where 0 is no effect and 100 is complete control. A dash (-) response means no test result. Colby's Equation was used to determine the herbicidal effects expected from the mixtures. […] “Exp.” is the expected effect calculated from Colby's Equation.

barnyardgrass (ECHCG) = assay: Test G paddy mixture test (Colby); type: in vivo, Echinochloa crus-galli; settings: applied alone, 20 g a.i./ha; 14 d; scale 0-100
Description: as §4

ducksalad (HETLI) = assay: Test G paddy mixture test (Colby); type: in vivo, Heteranthera limosa; settings: applied alone, 20 g a.i./ha; 14 d; scale 0-100
Description: as §4

CCNc1nc(Cl)nc(NC(C)C)n1 [Atrazine]
AMATA Obsd. (waterhemp (AMATA); 62 g a.i./ha): 33
AMATA Obsd. (waterhemp (AMATA); 125 g a.i./ha): 90
SETFA Obsd. (giant foxtail (SETFA); 62 g a.i./ha): 0
SETFA Obsd. (giant foxtail (SETFA); 125 g a.i./ha): 8
ZEAMD Obsd. (corn (ZEAMD); 62 g a.i./ha): 0
ZEAMD Obsd. (corn (ZEAMD); 125 g a.i./ha): 0
GLXMA Obsd. (soybean (GLXMA); 62 g a.i./ha): 13
GLXMA Obsd. (soybean (GLXMA); 125 g a.i./ha): 48

COC(=O)c1ccccc1CS(=O)(=O)NC(=O)Nc1nc(OC)cc(OC)n1 [Bensulfuron-methyl]
CYPDI Obsd. [1]: 100 and 98
ECHCG Obsd. (barnyardgrass (ECHCG)): 65
HETLI Obsd. (ducksalad (HETLI)): 100

CCOC(=O)c1ccccc1S(=O)(=O)NC(=O)Nc1nc(Cl)cc(OC)n1 [Chlorimuron-ethyl]
AMATA Obsd. (waterhemp (AMATA); 1 g a.i./ha): 47
AMATA Obsd. (waterhemp (AMATA); 31 g a.i./ha): 89
SETFA Obsd. (giant foxtail (SETFA); 1 g a.i./ha): 0
SETFA Obsd. (giant foxtail (SETFA); 31 g a.i./ha): 47
ZEAMD Obsd. (corn (ZEAMD); 1 g a.i./ha): 22
ZEAMD Obsd. (corn (ZEAMD); 31 g a.i./ha): 73
GLXMA Obsd. (soybean (GLXMA); 1 g a.i./ha): 0
GLXMA Obsd. (soybean (GLXMA); 31 g a.i./ha): 22
